“Also recorded” adds a separate entry of the source. *1 amine or outer side, *2 acyl side, *3 side chain or, on linkers, in order; H or OH if unused. Where a SMILES comes first, the peptide text is derived from it. [ ]: non-standard residue; d: D form. βAsp = O=C(O)[C@H](CC(=O)[*:2])N[*:1]
Tests used:
TUBO-EGFR cells = assay: In vivo tumor assay, TUBO-EGFR cells s.c. in immunized mice; settings: immunized Balb/c mice, days 11, 13 and 18
From the text: (§1) Female Balb/c or female C57BL/6 mice, 6-8 weeks old, were obtained from the National Cancer Institute. All mice were housed at the Yale University School of Medicine Animal Facility. All protocols were consistent with accepted guidelines of the National Institutes of Health for the care and use of laboratory animals as well as approved by the Yale University Institutional Animal Care and Use Committee. For the generation of antibody, three to five Balb/c or C57BL/6 mice per group were immunized intraperitoneally and subcutaneously in one footpad with 100 μg of peptide emulsified 1:1 of PBS and complete Freund's adjuvant (CFA). Twenty-one days later, mice were boosted intraperitoneally and subcutaneously in the other footpad with 100 μg of immunizing peptide emulsified in incomplete Freund's adjuvant (IFA). Sera were collected via retro-orbital bleed at day 28 for antibody analyses. For T cell assays, mice were immunized by the same route of administration with 100 μg of peptide emulsified 1:1 in CFA. […]
Female Balb/c mice were immunized with either Asp or isoAsp EGFR p580 as described above for the generation of antibody. […] Tumor volume was calculated by measuring three orthogonal axes (a, b, and c) with digital calipers, with the tumor volume=abc/2 (Cho H S et al. (2003) Nature 421:756-60).

[1] = system: MDA-MB-453 cells (HER2-positive, EGFR-negative); assay: Flow cytometry, binding to MDA-MB-453 cells; set-up: species or system human; settings: serum 1:100 or antibody 5 μg/ml
Experimental: (§2) Cells (10^5 cells/sample) were stained with a 1:100 dilution of serum in PBS with 0.1% BSA and 0.05% sodium azide for 1 h at 4° C. Cells were washed and incubated with a 1:100 dilution of either anti-mouse IgG fluorescein isothiocyanate (FITC; Sigma) or anti-human IgG AlexaFluor 488 (Molecular Probes, Invitrogen) for 1 h at 4° C. Some samples were further stained using anti-FITC AlexaFluor 488. Cells were washed and fixed in PBS+1% paraformaldehyde. Cells were analyzed on a FACSCalibur (BD Biosciences) with FlowJo software (Tree Star). Controls included unstained cells and cells stained with secondary antibody alone.

HER2 p585 peptide = target: T1, HER2 p585 peptide (Homo sapiens, UniProt P04626); assay: ELISA, immune serum binding to HER2 p585 peptide; settings: sera from Balb/c mice
T1 construct: host or cells: chemical synthesis
Experimental: (§3) Polystyrene microtiter plates (Nunc) were coated with either 50 μg/ml peptide or 1 μg of rHER2 or rHER3 extracellular domains in buffer (0.05 M carbonate-bicarbonate buffer, pH 9.6; Sigma) and incubated overnight at 4° C. Wells were washed, blocked with PBS containing 3% bovine serum albumin (BSA) followed by the addition of serum samples (1:100 dilution) for 2 h at room temperature. Alkaline phosphatase conjugated-goat anti-mouse IgG antibody (Southern Biotech) was added to the wells at a 1:1000 dilution and incubated at room temperature for 1.5 h. Wells were washed one last time, and developed by the addition of the substrate p-nitrophenyl phosphate (Sigma). Wells were read on a SpectraMax 450 ELISA reader (Molecular Dynamics) at 405 nm.

[2] = target: T2, recombinant HER3 extracellular domain (Homo sapiens, UniProt P21860); assay: ELISA, immune serum binding to recombinant HER3 extracellular domain; settings: serum 1:100 dilution
T2 construct: Recombinant human HER3 extracellular domain was purchased from R&D Systems; purchased R&D Systems
T2 sequence (P21860 20-643 limits assumed): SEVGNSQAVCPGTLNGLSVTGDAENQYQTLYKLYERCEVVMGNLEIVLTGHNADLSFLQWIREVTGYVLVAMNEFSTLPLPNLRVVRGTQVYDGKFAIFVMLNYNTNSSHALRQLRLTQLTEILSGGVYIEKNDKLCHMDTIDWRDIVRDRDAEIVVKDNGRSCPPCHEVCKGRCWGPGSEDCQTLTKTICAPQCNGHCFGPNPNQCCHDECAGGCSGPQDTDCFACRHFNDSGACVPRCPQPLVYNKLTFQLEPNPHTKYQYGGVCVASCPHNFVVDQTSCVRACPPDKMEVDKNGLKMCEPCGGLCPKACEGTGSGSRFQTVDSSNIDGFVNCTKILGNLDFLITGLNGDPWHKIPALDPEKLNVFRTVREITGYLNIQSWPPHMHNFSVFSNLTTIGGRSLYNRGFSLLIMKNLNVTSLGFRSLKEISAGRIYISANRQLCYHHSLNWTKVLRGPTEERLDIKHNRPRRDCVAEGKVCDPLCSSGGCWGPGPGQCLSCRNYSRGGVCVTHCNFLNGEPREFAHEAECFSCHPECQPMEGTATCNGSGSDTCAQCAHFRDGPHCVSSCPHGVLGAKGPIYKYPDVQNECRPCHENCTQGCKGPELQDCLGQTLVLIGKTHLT
Experimental: as §3

EGFR peptides = assay: ELISA, antisera against the panel of EGFR peptides; format: binding, murine (mu) and human (hu); settings: 100 μg peptide in CFA, boost in IFA, sera day 28
From the text: as §1
Polystyrene microtiter plates (Nunc) were coated with either 50 μg/ml peptide or 1 μg of rHER2 or rHER3 extracellular domains in buffer (0.05 M carbonate-bicarbonate buffer, pH 9.6; Sigma) and incubated overnight at 4° C. […] Wells were read on a SpectraMax 450 ELISA reader (Molecular Dynamics) at 405 nm.

[3] = target: T3, recombinant HER2 extracellular domain (Homo sapiens, UniProt P04626); assay: ELISA, immune serum binding to recombinant HER2 extracellular domain; settings: serum 1:100 dilution
T3 construct: The extracellular domain of HER2 was a kind gift of Dr. Daniel Leahy
Experimental: as §3

human EGFR on A431 cells = assay: Flow cytometry, binding to A431 cells; settings: for Staining of A431 cells by flow cytometry: serum 1:100 or cetuximab 5 μg/ml
Experimental: as §2

[4] = system: T cells from EGFR p580 immunized mice; assay: T cell proliferation assay, 3H-thymidine; format: cell-based; settings: lymph node cells of immunized C57BL/6 mice re-stimulated 72 h with peptide
HER4 p578 peptide = target: T4, HER4 p578 peptide (Homo sapiens, UniProt Q15303); assay: ELISA, immune serum binding to HER4 p578 peptide; settings: data not shown
T4 construct: host or cells: chemical synthesis
Experimental: as §3

HER3 p574 peptide = target: T5, HER3 p574 peptide (Homo sapiens, UniProt P21860); assay: ELISA, immune serum binding to HER3 p574 peptide; settings: sera from Balb/c mice
T5 construct: host or cells: chemical synthesis
Experimental: as §3

MDA-MB-453 cells [5] = assay: ADCC assay with human PBMC, MDA-MB-453 cells; format: cell-based; settings: 1:25 serum or 20 μg/ml antibody, human PBMC 50:1, 4 h, compared to rituximab
Experimental: (§4) All experimental sera were heat-inactivated (56° C., 30 min) prior to use. A431 or MDA-MB-453 cells were incubated with a 1:25 dilution of heat-inactivated sera or control antibody (20 μg/ml) 30 min at 37° C. in 96-well U bottom plates. Freshly isolated human peripheral blood mononuclear cells (PBMC) from healthy donors were incubated with antibody coated target cells at a 50:1 effector to target ratio for 4 h at 37° C. Fifty microliters of each cell culture supernatant was then assayed for lactate dehydrogenase released from dead cells using the CytoTox96 Non-Radioactive Cytotoxicity Assay (Promega) per manufacturer's instructions. Percent cytotoxicity was calculated as [(experimental-effector spontaneous-target spontaneous)/(target maximum-target spontaneous)]×100.

A431 cells [6] = assay: ADCC assay with human PBMC, A431 cells; format: cell-based; settings: 1:25 serum or 20 μg/ml antibody, human PBMC 50:1, 4 h
Experimental: as §4

[7] = mouse, in vivo
MDA-MB-453 cells [8] = settings: control antibodies, 10-40 mg/ml concentrations tested
Experimental: Cells were incubated for three days with 1:25 dilutions of sera from either Asp or isoAsp p580 immunized Balb/c mice. Cell proliferation was measured by 3H-thymidine incorporation.

A431 cells [9] = settings: isotype control 10 μg/ml, data not shown
native HER2 = native HER2 (Homo sapiens, UniProt P04626); settings: Garrett J T et al. (2007); cited from earlier work

Compound	Tumor size versus adjuvant alone (PBS-CFA) (TUBO-EGFR cells)	Binding to MDA-MB-453 cells by flow cytometry [1]	Immune serum binding to HER2 p585 peptide by ELISA (HER2 p585 peptide)	Immune serum binding to HER3 extracellular domain by ELISA [2]	Antibodies elicited by immunization, binding to EGFR peptides by ELISA (EGFR peptides)	Immune serum binding to HER2 extracellular domain by ELISA [3]	Staining of A431 cells by flow cytometry (human EGFR on A431 cells)	T cell response to Asp and iso-Asp p580 [4]	Immune serum binding to homologous HER4 p578 peptide (HER4 p578 peptide)	Immune serum binding to HER3 p574 peptide by ELISA (HER3 p574 peptide)	further results
CC[C@H](C)[C@H](N)C(=O)N[C@@H](CCC(N)=O)C(=O)N[C@@H](CS)C(=O)N[C@@H](C)C(=O)N[C@@H](Cc1c[nH]cn1)C(=O)N[C@@H](Cc1ccc(O)cc1)C(=O)N[C@H](C(=O)N[C@@H](CC(=O)O)C(=O)NCC(=O)N1CCC[C@H]1C(=O)N[C@@H](Cc1c[nH]cn1)C(=O)N[C@@H](CS)C(=O)N[C@H](C(=O)N[C@@H](CCCCN)C(=O)N[C@H](C(=O)N[C@@H](CS)C(=O)N1CCC[C@H]1C(=O)N[C@@H](C)C(=O)NCC(=O)O)[C@@H](C)O)C(C)C)[C@@H](C)CC [Asp EGFR p580] (H-IQCAHYIDGPHCVKTCPAG-OH; N-terminus and C-terminus assumed)	significantly smaller tumors	showed affinity	bound	bound	generated antibodies against Asp and iso-Asp p580, as well as Asp and iso-Asp p572 and Asp p596	bound	stained A431 cells above that seen with pre-immune sera	strong T cell responses to both Asp and iso-Asp p580	neither Asp nor isoAsp EGFR p580 antisera bound; also recorded: neither the Asp nor iso-Asp EGFR p580 antiserum bound	bound	–
CC[C@H](C)[C@H](N)C(=O)N[C@@H](CCC(N)=O)C(=O)N[C@@H](CS)C(=O)N[C@@H](C)C(=O)N[C@@H](Cc1c[nH]cn1)C(=O)N[C@@H](Cc1ccc(O)cc1)C(=O)N[C@H](C(=O)N[C@@H](CC(=O)NCC(=O)N1CCC[C@H]1C(=O)N[C@@H](Cc1c[nH]cn1)C(=O)N[C@@H](CS)C(=O)N[C@H](C(=O)N[C@@H](CCCCN)C(=O)N[C@H](C(=O)N[C@@H](CS)C(=O)N1CCC[C@H]1C(=O)N[C@@H](C)C(=O)NCC(=O)O)[C@@H](C)O)C(C)C)C(=O)O)[C@@H](C)CC [isoAsp EGFR p580] (H-IQCAHYI[βAsp]GPHCVKTCPAG-OH; N-terminus and C-terminus assumed)	significantly smaller tumors	showed affinity	bound	bound	sera bound strongly to both isoforms of p572 and Asp 596	bound	–	more robust response	neither Asp nor isoAsp EGFR p580 antisera bound	bound	Binding to A431 cells relative to Asp-isoform counterpart (human EGFR on A431 cells; flow cytometry): ~10 fold; Shift in staining intensity of A431 cells (human EGFR on A431 cells; immune sera, flow cytometry): > 10 fold; Immune serum binding to homologous HER4 p578 peptide (HER4 p578 peptide; listed as iso-Asp EGFR p580): neither the Asp nor iso-Asp EGFR p580 antiserum bound
IQCAHYIDGPHCVKTCPAG [EGFR p580]	–	–	–	–	–	–	bind to the EGFR overexpressing human A431 epidermoid carcinoma cell line at an epitope distinct from that recognized by cetuximab	–	–	–	ADCC killing of MDA-MB-453 cells (MDA-MB-453 cells [5]): significantly induced ADCC killing; ADCC killing of A431 cells (A431 cells [6]): exhibited significant killing; Autoimmunity, fur loss or skin pathology in immunized mice [7]: no signs of aberrant tissue autoimmunity
Rituximab: human anti-CD20 monoclonal antibody	–	–	–	–	–	–	–	–	–	–	MDA-MB-453 cell growth inhibition (MDA-MB-453 cells [8]): failed to inhibit; A431 cell growth inhibition (A431 cells [9]): did not inhibit any A431 growth
VACAHYKDPPFCVA [p585-598 HER2 peptide]	–	–	–	–	–	–	–	–	–	–	Elicited antibodies binding to native HER2 (native HER2): failed to elicit antibodies that bound strongly to native HER2
